Measurements published in patent US9403866B2, “Compositions and methods for increasing telomerase activity” (Telomerase Activation Sciences, Inc., priority 2009, dated 2016).
pEC50: −log10 of the molar value.

Legend:
[1] = system: Matrigel plugs; bone marrow stem/progenitor cells; assay: Administration to aging Tert (+/-) mice: hemoglobin and total RNA in Matrigel plugs, number of bone marrow stem/progenitor cells; type: in vivo, Tert (+/-) mice on a C57BL/6 background; conditions: 10 mg/kg/day PO (BID)
Method: Aging Tert (+/−) mice on a C57BL/6 background (8-9 months) were dosed with compound 4 at 10 mg/kg/day PO (BID) in 2% ethanol. Mice were pre-dosed for 1 day (Day −1). Matrigel™ was injected subcutaneously in the abdomen on Day 0, and plugs were harvested on Day 12.
One half of the plug was analyzed for telomerase activity and hemoglobin content, which is indicative of blood vessel formation (RBC cell buffer extraction, followed by M-PER extraction). The other half of the plug was processed for histology.
The Matrigel™ plug has a 1.2-fold increase in hemoglobin levels (p<0.2) n=15/group for mice treated with compound 4.
Total RNA, which reflects cell number, was increased 1.5-fold (p<0.1) n−15/group in Matrigel™ plugs after treatment with compound 4.
Bone marrow stem and progenitor cells were purified using lineage depletion magnetic sorting technology (Miltenyi MACS columns).
The number of purified bone marrow stem/progenitor cells increased 1.5-fold (p<0.1) n=6/group in mice treated with compound 4.

telomerase [2] = target: T1, telomerase (Homo sapiens, UniProt O14746); assay: Telomerase activation in short-term liquid culture of human bone marrow-derived CD34+ hematopoietic progenitor cells (gel-TRAP); type: cell-based; conditions: huCD34+ cells, 100 nM, 3 days
Method: Human bone marrow-derived CD34+ hematopoietic progenitor cells were obtained from a healthy donor.
Human bone marrow-derived CD34+ hematopoietic progenitor cells were grown in Iscove's Modified Dulbecco's Medium (IMDM) (Invitrogen, CA)+10% fetal bovine serum (FBS) for 3 days in the presence of compound 4 (1 uM, 100 nM, 10 nM), vehicle (1% DMSO), or nothing. Telomerase activity increased by ˜60-70% in the 100 nM compound 4 sample relative to the vehicle control (as assessed by traditional gel-TRAP assay).

telomerase [3] = target: T2, telomerase (Mus musculus, UniProt O70372); assay: Telomerase activity in short-term liquid culture, lineage-depleted bone marrow cells from wild type mice; type: cell-based; conditions: 100 nM and 1 uM, three days
T2 construct: endogenous in cells; host or cells: lineage-depleted bone marrow cells, wild-type mice
T2 sequence (O70372 1-1122): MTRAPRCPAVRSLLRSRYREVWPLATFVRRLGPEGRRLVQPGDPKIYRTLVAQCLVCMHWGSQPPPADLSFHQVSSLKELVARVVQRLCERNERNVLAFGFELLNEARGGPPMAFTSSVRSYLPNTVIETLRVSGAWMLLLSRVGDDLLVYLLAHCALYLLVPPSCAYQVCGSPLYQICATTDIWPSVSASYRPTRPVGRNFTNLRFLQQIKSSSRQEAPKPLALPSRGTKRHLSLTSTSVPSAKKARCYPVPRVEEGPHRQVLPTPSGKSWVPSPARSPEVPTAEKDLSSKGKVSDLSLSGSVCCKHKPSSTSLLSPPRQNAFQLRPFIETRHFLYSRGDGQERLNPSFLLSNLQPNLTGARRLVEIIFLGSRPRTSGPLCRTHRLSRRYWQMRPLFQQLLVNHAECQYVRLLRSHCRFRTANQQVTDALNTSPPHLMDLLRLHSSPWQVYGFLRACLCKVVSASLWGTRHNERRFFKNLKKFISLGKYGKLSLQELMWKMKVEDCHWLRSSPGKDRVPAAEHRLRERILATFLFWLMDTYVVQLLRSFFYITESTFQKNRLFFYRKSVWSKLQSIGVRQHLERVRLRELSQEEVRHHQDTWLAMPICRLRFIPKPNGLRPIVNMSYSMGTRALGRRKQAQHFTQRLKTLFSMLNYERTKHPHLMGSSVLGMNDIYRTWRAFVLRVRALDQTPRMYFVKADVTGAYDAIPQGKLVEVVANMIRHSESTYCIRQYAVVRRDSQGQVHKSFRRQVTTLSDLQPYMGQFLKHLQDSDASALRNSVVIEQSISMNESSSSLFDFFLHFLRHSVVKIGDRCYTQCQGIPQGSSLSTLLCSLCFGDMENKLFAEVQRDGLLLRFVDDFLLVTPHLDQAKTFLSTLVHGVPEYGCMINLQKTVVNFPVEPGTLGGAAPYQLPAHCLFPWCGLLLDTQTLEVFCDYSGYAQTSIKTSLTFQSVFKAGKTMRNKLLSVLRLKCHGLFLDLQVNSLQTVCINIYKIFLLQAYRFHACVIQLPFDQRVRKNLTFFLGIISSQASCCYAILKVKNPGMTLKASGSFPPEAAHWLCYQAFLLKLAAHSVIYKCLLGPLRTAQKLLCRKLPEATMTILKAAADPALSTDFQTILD
Method: Lineage-depleted bone marrow cells from mTERT heterozygous and wild type mice were grown in IMDM+15% FBS containing stem cell factor (Kitl), IL-3, and IL-11 for three days in the presence of compound 4 (1 uM, 100 nM, or 10 nM), vehicle (0.1% DMSO), or nothing. Telomerase activity in the wild-type cells increased by 40-50% when treated with 100 nM and 1 uM compound 4, relative to the vehicle-treated control.

[4] = system: mTERT heterozygous mouse lineage-depleted bone marrow cells; assay: Colony formation assay of mTERT heterozygous mouse lineage-depleted bone marrow cells; type: cell-based; conditions: 12 days
Method: mTERT heterozygous mouse lineage-depleted bone marrow cells were plated into a standard colony formation assay in the presence of compound 4 (100 nm and 500 nM), vehicle (0.1% DMSO), or nothing. After 12 days, hematopoietic colonies were enumerated (BFU-E, CFU-GM, and CFU-GEMM). Total colony counts were: untreated, 67; vehicle-treated, 64; 100 nM compound 4, 68; and 500 nM compound 4, 77.

Matrigel plugs = assay: Administration to BALB/c mice: total RNA and capillary density in Matrigel plugs; type: in vivo; conditions: 10 mg/kg/day PO (BID)
Method: BALB/c mice (2-3 months) were dosed with compound 4 in 2% ethanol at 10 mg/kg/day PO (BID). Mice were pre-dosed for 1 day (Day −1). Matrigel™ (BDBiosciences, California) was injected subcutaneously in the abdomen on Day 0, and the Matrigel™ plugs were harvested on Day 12.
Total RNA, which reflects cell number, was increased 1.6-fold (p<0.2) n=5/group in Matrigel™ plugs after treatment with compound 4.
The other half of the Matrigel™ plug was used for histology and CD31 immunostaining to analyze capillary density (CD31 is a marker for endothelial cells, which line the capillaries). A 1.3-fold increase in capillary density in (CD-31 immuno staining) (p<0.5) n=5/group was observed after treatment with compound 4.

telomerase [5] = target: T1, telomerase; assay: Keratinocyte cell/TRAP assay (HEKneo-P cells); type: cell-based; parameters: host or cells: HEKneo-P (pooled neonatal human epidermal keratinocytes); conditions: telomerase activation
Source text: Harley et al., U.S. Pat. […] Harley et al., U.S. Pat. […] Non-treatment control (NT) was also included. […]

T1 sequence (O14746 whole entry): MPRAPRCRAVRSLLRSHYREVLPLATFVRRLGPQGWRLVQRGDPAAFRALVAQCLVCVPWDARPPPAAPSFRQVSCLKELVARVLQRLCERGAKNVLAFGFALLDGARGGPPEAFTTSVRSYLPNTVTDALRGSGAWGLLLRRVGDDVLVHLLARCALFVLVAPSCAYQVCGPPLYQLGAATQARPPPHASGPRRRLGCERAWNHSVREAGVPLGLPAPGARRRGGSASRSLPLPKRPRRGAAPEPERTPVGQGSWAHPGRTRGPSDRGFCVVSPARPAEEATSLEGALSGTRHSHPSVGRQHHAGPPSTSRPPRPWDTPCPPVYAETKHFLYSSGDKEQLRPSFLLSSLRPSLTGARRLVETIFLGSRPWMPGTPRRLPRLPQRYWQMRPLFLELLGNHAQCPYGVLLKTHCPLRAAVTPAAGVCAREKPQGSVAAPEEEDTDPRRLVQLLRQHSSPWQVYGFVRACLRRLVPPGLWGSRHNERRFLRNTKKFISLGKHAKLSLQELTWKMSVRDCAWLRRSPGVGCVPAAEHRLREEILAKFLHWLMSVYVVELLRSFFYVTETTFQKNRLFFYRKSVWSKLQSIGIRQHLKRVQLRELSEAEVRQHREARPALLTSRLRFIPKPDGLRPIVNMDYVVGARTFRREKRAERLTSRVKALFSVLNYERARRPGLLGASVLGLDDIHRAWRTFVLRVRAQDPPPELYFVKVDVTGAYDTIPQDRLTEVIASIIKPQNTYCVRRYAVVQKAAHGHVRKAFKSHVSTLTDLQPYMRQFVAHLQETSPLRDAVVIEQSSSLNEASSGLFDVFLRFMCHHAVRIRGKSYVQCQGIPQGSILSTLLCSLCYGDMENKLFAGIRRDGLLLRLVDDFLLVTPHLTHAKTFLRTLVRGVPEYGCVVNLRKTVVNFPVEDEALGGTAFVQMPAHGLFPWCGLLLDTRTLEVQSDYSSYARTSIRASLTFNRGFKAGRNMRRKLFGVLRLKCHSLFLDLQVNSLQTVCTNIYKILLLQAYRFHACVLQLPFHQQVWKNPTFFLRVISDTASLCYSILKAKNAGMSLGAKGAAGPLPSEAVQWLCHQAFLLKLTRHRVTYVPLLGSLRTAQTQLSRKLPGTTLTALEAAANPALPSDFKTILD

CC(C)C(N)C(=O)OC1CCC23CC24CCC2(C)C(C5(C)CCC(C(C)(C)O)O5)C(O)CC2(C)C4CC(O)C3C1(C)C (stereo not drawn) [Compound 4, 2-(L)-Amino-3-methyl-butyric acid 6α,16β-dihydroxy-17-[5-(1-hydroxy-1-methyl-ethyl)-2-methyl-tetrahydro-furan-2-yl]-4,4,13,14-tetramethyl-tetradecahydro-cyclopropa[9,10]cyclopenta[a]phenanthren-3β-yl ester]
Total RNA (reflects cell number) increase in Matrigel plugs ([1]; p<0.1): 1.5 fold | increase in number of purified bone marrow stem/progenitor cells ([1]; p<0.1): 1.5 fold | increase in hemoglobin levels in the Matrigel plug ([1]; p<0.2): 1.2 fold | Telomerase activity increase relative to the vehicle control (telomerase [2]): 60-70% | Telomerase activity increase relative to the vehicle-treated control (telomerase [3]): 40-50% | BFU-E colonies ([4]; 100 nM): 22 | CFU-E colonies ([4]; 100 nM): 43 | CFU-GEMM colonies ([4]; 100 nM): 3 | Total colony counts ([4]; 100 nM): 68 | BFU-E colonies ([4]; 500 nM): 27 | CFU-E colonies ([4]; 500 nM): 48 | CFU-GEMM colonies ([4]; 500 nM): 1 | Total colony counts ([4]; 500 nM): 77 | Total RNA (reflects cell number) increase in Matrigel plugs (Matrigel plugs; Day 12, p<0.2): 1.6 fold | increase in capillary density (CD-31 immuno staining) (Matrigel plugs; Day 12, p<0.5): 1.3 fold | pEC50 (telomerase [5]): 7.66 to 8.22
